Test results as given in publication PMC8653655, “The Design, Synthesis and Evaluation of Rho-kinase Inhibitory Activity of 4-aryl-thiazole-2-amines” (Iranian Journal of Pharmaceutical Research : IJPR, 2021).
Where two headings read alike, the source gives them in different places.

Key:
ROCK II = biological target: T1, ROCK II (Homo sapiens, UniProt O75116); test: Enzyme-based ROCK II inhibitory activity assay (ELISA, Rho kinase assay kit CY-1160); format: biochemical; conditions: for inhibition at 10 µM: read-out: Inhibition of ROCKII (%); for IC50: read-out: IC50 against ROCK II
T1 construct: purchased Cycle, Nagoya, Japan CY-1160
T1 sequence (O75116 whole entry): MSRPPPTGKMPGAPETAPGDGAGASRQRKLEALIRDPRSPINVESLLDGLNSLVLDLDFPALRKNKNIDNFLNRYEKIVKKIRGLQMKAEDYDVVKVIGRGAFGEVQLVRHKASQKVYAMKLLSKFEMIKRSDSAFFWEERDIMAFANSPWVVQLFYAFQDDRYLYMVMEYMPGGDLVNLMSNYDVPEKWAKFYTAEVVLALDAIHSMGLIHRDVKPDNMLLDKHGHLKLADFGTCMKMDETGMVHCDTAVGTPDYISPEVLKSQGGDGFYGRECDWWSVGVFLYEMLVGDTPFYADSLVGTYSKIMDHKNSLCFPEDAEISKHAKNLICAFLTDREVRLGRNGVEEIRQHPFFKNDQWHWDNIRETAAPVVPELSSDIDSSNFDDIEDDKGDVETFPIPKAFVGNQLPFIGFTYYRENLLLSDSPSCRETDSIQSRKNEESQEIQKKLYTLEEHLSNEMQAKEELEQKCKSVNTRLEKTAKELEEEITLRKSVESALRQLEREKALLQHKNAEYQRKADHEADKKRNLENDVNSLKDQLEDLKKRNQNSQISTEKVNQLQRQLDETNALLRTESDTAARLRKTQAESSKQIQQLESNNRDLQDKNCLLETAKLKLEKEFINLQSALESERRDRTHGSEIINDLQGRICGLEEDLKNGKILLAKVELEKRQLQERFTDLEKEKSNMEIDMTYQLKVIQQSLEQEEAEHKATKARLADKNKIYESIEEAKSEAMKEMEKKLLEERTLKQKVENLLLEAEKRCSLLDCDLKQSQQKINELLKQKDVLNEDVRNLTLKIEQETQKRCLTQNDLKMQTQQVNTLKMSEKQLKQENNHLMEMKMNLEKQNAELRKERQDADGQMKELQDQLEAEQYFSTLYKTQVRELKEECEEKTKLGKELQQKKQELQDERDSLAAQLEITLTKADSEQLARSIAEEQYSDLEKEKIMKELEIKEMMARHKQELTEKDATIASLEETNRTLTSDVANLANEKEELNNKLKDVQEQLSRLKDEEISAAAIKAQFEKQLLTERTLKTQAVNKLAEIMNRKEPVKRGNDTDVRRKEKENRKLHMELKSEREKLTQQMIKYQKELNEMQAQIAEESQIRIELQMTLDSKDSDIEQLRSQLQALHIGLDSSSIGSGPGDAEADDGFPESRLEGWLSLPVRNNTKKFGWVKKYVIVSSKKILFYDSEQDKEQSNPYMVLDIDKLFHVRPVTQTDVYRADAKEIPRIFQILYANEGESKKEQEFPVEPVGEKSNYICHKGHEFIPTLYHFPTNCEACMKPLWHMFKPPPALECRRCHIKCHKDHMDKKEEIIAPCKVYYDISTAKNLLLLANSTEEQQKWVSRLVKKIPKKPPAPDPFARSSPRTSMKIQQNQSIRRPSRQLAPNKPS
Description: Enzyme-based ROCK II inhibitory activity studies
The enzyme-based ROCK II inhibitory activity assay was performed using the Rho kinase assay kit (CY-1160, Cycle, Nagoya, Japan). All operation was guided by the manufacturer’s instructions. Briefly, the compounds at 10 µM were pre-incubated in a system wherein ROCK II (0.02 ng/µL) phosphorylates the myosin-binding subunit (MBS) of kinase substrate pre-absorbed onto the microplate in the presence of Mg^2+ and ATP. Then, the system was washed after incubation at 30 ^◦C for 30 min. 100 µL of antibody was added to the wells and then incubated for 30 min at room temperature. 100 µL of substrate reagent and 100 µL stop solution were successively added to each well. The plates were read on the Viewlux in HTRF mode within 30 min.
All compounds were initially evaluated for their percentage inhibition against ROCK II with a ROCK II assay kit (CY-1160, Cycle, Japan).

[1] = undesired pharmacokinetic properties, not suitable for non-topical administration; cited from earlier work
ROCK = system: ROCK; set-up: method as in PMID 18638453; conditions: compared with its in-vitro enzyme-based ROCK II activity; cited from earlier work
[2] = full concentration-response plots

inhibition at 10 µM (ROCK II; compound concentration 10 µM) | melting point | IC50 (ROCK II; [2]) | Compound | also measured
27.9% | 179 to 181 °C |  | CN1CCN(Cc2sc(NC(=O)c3ccc(Cl)c(Cl)c3)nc2-c2cccnc2)CC1 [4e, 3,4-Dichloro-N-(5-((4-methylpiperazin-1-yl)methyl)-4-(pyridin-3-yl)thiazol-2-yl) benzamide] | 
32.7% | 180 to 182 °C |  | Cc1ccc(C(=O)Nc2nc(-c3cccnc3)c(CN3CCN(C)CC3)s2)cc1 [4b, 4-Methyl-N-(5-((4-methylpiperazin-1-yl)methyl)-4-(pyridin-3-yl)thiazol-2-yl) benz-amide] | 
32.8% |  |  | Cc1ccc(C(=O)Nc2nc(-c3cccnc3)c(CN(C)C(C)C)s2)cc1 [4c, N-(5-((i-Propyl(methyl)amino)methyl)-4-(pyridin-3-yl)thiazol-2-yl)-4-methylbenzamide] | 
43.5% | 163 to 164 °C |  | O=C(Nc1nc(-c2ccncc2)c(CN2CCOCC2)s1)c1ccc(Cl)c(Cl)c1 [4p, 3,4-Dichloro-N-(5-(morpholinomethyl)-4-(pyridin-4-yl)thiazol-2-yl) benzamide] | 
58.1% | 175 to 178 °C | 8560 nM | O=C(Nc1nc(-c2ccncc2)c(CN2CCOCC2)s1)c1ccncc1 [4s, N-(5-(morpholinomethyl)-4-(pyridin-4-yl)thiazol-2-yl) isonicotinamide] | 
29.6% | 198 to 199 °C |  | CN1CCN(Cc2sc(NC(=O)c3ccccc3)nc2-c2cccnc2)CC1 [4g, N-(5-((4-Methylpiperazin-1-yl)methyl)-4-(pyridin-3-yl)thiazol-2-yl) benzamide] | 
61.3% | 181 to 182 °C | 1560 ± 230 nM | O=C(Nc1nc(-c2cccnc2)c(CN2CCCC2)s1)C1COc2ccccc2O1 (stereo not shown) [4k, N-(4-(pyridin-3-yl)-5-(pyrrolidin-1-ylmethyl)thiazol-2-yl)-2,3-dihydrobenzo[b] [1,4] dioxine-2-carboxamide] | 
38.1% | 169 to 171 °C |  | O=C(Nc1nc(-c2ccncc2)c(CN2CCCCC2)s1)c1cccnc1 [4u, N-(5-(Piperidin-1-ylmethyl)-4-(pyridin-4-yl)thiazol-2-yl) nicotinamide] | 
35.3% | 201 to 202 °C |  | CN(C)Cc1sc(NC(=O)c2ccncc2)nc1-c1cccnc1 [4h, N-(5-((dimethylamino)methyl)-4-(pyridin-3-yl)thiazol-2-yl) isonicotinamid] | 
44.8% | 201 to 203 °C |  | CN1CCN(Cc2sc(NC(=O)c3ccc(Cl)c(Cl)c3)nc2-c2ccncc2)CC1 [4o, 3,4-Dichloro-N-(5-((4-methylpiperazin-1-yl)methyl)-4-(pyridin-4-yl)thiazol-2-yl) benzamide] | 
 |  |  | N-(5-((4-Methylpiperazin-1-yl) methyl)-4- (pyridin-4-yl) thiazol-2-yl) isonicotinamide [4q] | Inhibition of ROCKII (%) (ROCK II; compound concentration 10 µM): 48.2%
47.6% | 192 to 195 °C |  | O=C(Nc1nc(-c2ccncc2)c(CN2CCCC2)s1)c1ccncc1 [4r, N-(4-(Pyridin-4-yl)-5-(pyrrolidin-1-ylmethyl)thiazol-2-yl) isonicotinamide] | 
42.4% | 148 to 150 °C |  | Cc1ccc(C(=O)Nc2nc(-c3ccncc3)c(CN3CCN(C)CC3)s2)cc1 [4n, 4-Methyl-N-(5-((4-methylpiperazin-1-yl)methyl)-4-(pyridin-4-yl)thiazol-2-yl) benzamide] | 
52.2% | 178 to 180 °C | 9120 ± 2460 nM | O=C(Nc1nc(-c2ccncc2)c(CN2CCOCC2)s1)c1cccnc1 [4t, N-(5-(Morpholinomethyl)-4-(pyridine-4-yl)thiazol-2-yl) nicotinamide] | 
42.9% | 208 to 210 °C |  | O=C(Nc1nc(-c2cccnc2)c(CN2CCOCC2)s1)c1ccc(Cl)c(Cl)c1 [4d, 3,4-Dichloro-N-(5-(morpholinomethyl)-4-(pyridin-3-yl)thiazol-2-yl) benzamide] | 
46.3% | 198 to 199 °C |  | Cc1ccc(C(=O)Nc2nc(-c3cccnc3)c(CN3CCOCC3)s2)cc1 [4a, 4-Methyl-N-(5-(morpholinomethyl)-4-(pyridin-3-yl)thiazol-2-yl) benzamide] | 
51.1% | 185 to 187 °C | 9830 ± 1450 nM | O=C(Nc1nc(-c2cccnc2)c(CN2CCOCC2)s1)c1ccncc1 [4i, N-(5-(morpholinomethyl)-4-(pyridin-3-yl)thiazol-2-yl) isonicotinamide] | 
73.8% | 177 to 179 °C | 1020 ± 70 nM | O=C(Nc1nc(-c2cccnc2)c(CN2CCOCC2)s1)C1COc2ccccc2O1 (stereo not shown) [4l, N-(5-(morpholinomethyl)-4-(pyridin-3-yl)thiazol-2-yl)-2,3-dihydrobenzo[b] [1,4] dioxine-2-carboxamide] | 
48.6% | 148 to 149 °C |  | Cc1ccc(C(=O)Nc2nc(-c3ccncc3)c(CN3CCOCC3)s2)cc1 [4m, 4-Methyl-N-(5-(morpholinomethyl)-4-(pyridin-4-yl)thiazol-2-yl) benzamide] | 
68.1% | 192 to 196 °C | 960 ± 120 nM | CN(C)Cc1sc(NC(=O)C2COc3ccccc3O2)nc1-c1cccnc1 (stereo not shown) [4j, N-(5-((dimethylamino)methyl)-4-(pyridin-3-yl)thiazol-2-yl)-2,3-dihydrobenzo[b] [1,4] dioxine-2-carboxamide] | 
 |  |  | CN(C)CCOc1cc(-c2cn[nH]c2)ccc1NC(=O)[C@H]1Cc2ccccc2CN1 [I] | bioavailability [1]: low bioavailability; clearance [1]: high clearance
84.4% | 178 to 180 °C | 20 nM | O=C(Nc1nc(-c2ccncc2)c(CN2CCOCC2)s1)C1COc2ccccc2O1 (stereo not shown) [4v, N-(5-(morpholinomethyl)-4-(pyridin-4-yl)thiazol-2-yl)-2,3-dihydrobenzo[b] [1,4] dioxine-2-carboxamide] | IC50 (ROCK II; value stated in text in nM): 20 nM
34.6% | 171 to 172 °C |  | CC(C)N(C)Cc1sc(NC(=O)c2ccc(Cl)c(Cl)c2)nc1-c1cccnc1 [4f, 3,4-Dichloro-N-(5-((i-propyl(methyl)amino)methyl)-4-(pyridin-3-yl)thiazol-2-yl) benzamide] | 
91.3% |  | 10 ± 3 nM | O=C(Nc1nc(-c2ccncc2)cs1)C1COc2ccccc2O1 (stereo not shown) [II, reference compound] | potency in a cell-based assay (ROCK): much less potent
